Values quoted from earlier work in US6423302B1, “Use of octocrylene for solubilizing 2,4-bis{[4-(2-ethyl-hexyloxy)-2-hydroxy]-phenyl}-6-(4-methoxyphenyl)-1,3,5-triazine in cosmetic or dermatological light protection compositions” (Beiersdorf AG, priority 1999, dated 2002).

Conditions: prior-art statement

maximum amount of this filter that known solvents can dissolve (known solvents for this UV filter (lipids)): ≤ 10 % by weight
solubility in lipids (stated as main disadvantage): poor solubility in lipids
Compound: CCCCC(CC)COc1ccc(-c2nc(-c3ccc(OC)cc3)nc(-c3ccc(OCC(CC)CCCC)cc3O)n2)c(O)c1 (centres unmarked) [2,4-bis-{[4-(2-ethylhexyloxy)-2-hydroxy]phenyl}-6-(4-methoxyphenyl)-1,3,5-triazine]
